Test results: PubChem BioAssay (NCI)
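Dose response: 5 concentrations. Exposure: 48 h. Format: 96-well plates. Endpoint: linear interpolation; highest concentration if not reached. At the GI50, growth is halved. The concentration for full growth arrest is given as TGI.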

Legend:
Assay in all cases: growth of human tumour cells (NCI), 48 h
BT-549 breast = tested on: BT-549 breast
DU-145 prostate = tested on: DU-145 prostate
MCF7 breast = tested on: MCF7 breast
PC-3 prostate = tested on: PC-3 prostate
T-47D breast = tested on: T-47D breast
HS 578T breast = tested on: HS 578T breast

## C[C@H]1CCCC(O)C(O)[C@@H]2C[C@H](O[Si](C)(C)C(C)(C)C)C[C@H]2[C@H](O[Si](C)(C)C(C)(C)C)C(O)C(O)C(=O)O1 (stereo not given in full)
BT-549 breast
  GI50: 20.1 µM
  TGI: > 100 µM
DU-145 prostate
  GI50: 28.3 µM
  TGI: > 100 µM
MCF7 breast
  GI50: 50.2 µM
  TGI: > 100 µM
PC-3 prostate
  GI50: 46.1 µM
  TGI: > 100 µM
T-47D breast
  GI50: 28.4 µM
  TGI: > 100 µM

## Cc1ccc(-c2nc3nc(-c4ccc(F)cc4)nc(N4CCCNCC4)c3o2)cc1
BT-549 breast
  GI50: 1.66 µM
  TGI: 3.37 µM
DU-145 prostate
  GI50: 1.68 µM
  TGI: 3.11 µM
HS 578T breast
  GI50: 1.78 µM
  TGI: 3.69 µM
MCF7 breast
  GI50: 1.23 µM
  TGI: 2.96 µM
PC-3 prostate
  GI50: 1.56 µM
  TGI: 3.18 µM

## CCCCCCCCCCCCCCCC[N+]1(C)CCOCC1
BT-549 breast
  GI50: 2.2 µM
  TGI: 4.7 µM
DU-145 prostate
  GI50: 2.41 µM
  TGI: 6.79 µM
HS 578T breast
  GI50: 2.23 µM
  TGI: 8.44 µM
MCF7 breast
  GI50: 2.72 µM
  TGI: 13.2 µM
PC-3 prostate
  GI50: 0.655 µM
  TGI: 2.43 µM
T-47D breast
  GI50: 4.68 µM
  TGI: 25.2 µM

## N#CNC(N)=Nc1ccc(Cl)cc1
BT-549 breast
  TGI: > 100 µM
DU-145 prostate
  TGI: > 100 µM
HS 578T breast
  TGI: > 100 µM
MCF7 breast
  TGI: > 100 µM
PC-3 prostate
  TGI: > 100 µM
T-47D breast
  TGI: > 100 µM

## Cc1ccc(NC(=O)c2cc(S(=O)(=O)N3C(=O)NC(=O)NS3(=O)=O)c(S)cc2Cl)cc1
BT-549 breast
  GI50: 24.2 µM
  TGI: 63.9 µM
DU-145 prostate
  GI50: 23.2 µM
  TGI: 64 µM
HS 578T breast
  GI50: 29.4 µM
  TGI: 95.8 µM
MCF7 breast
  GI50: 28 µM
  TGI: > 100 µM
PC-3 prostate
  GI50: 32.3 µM
  TGI: > 100 µM
T-47D breast
  GI50: 21.4 µM
  TGI: 81.3 µM

## CNC(=O)c1nn(C)c2c1C(C)(C)Cc1cnc(Nc3ccc(N4CCN(C)CC4)cc3)nc1-2
BT-549 breast
  GI50: 1.61 µM
  TGI: > 8.77 µM
DU-145 prostate
  GI50: 0.995 µM
  TGI: > 10 µM
HS 578T breast
  GI50: 0.369 µM
  TGI: > 2.37 µM
MCF7 breast
  GI50: 0.238 µM
  TGI: > 10 µM
PC-3 prostate
  GI50: 0.368 µM
  TGI: > 10 µM
T-47D breast
  GI50: 0.261 µM
  TGI: > 5.55 µM

## COCCOCCOC1=CC(=O)c2c(O)ccc(O)c2C1=O
BT-549 breast
  TGI: 3.2 µM
DU-145 prostate
  TGI: 2.82 µM
HS 578T breast
  TGI: 6.05 µM
MCF7 breast
  TGI: 2.88 µM
PC-3 prostate
  TGI: 6.73 µM
T-47D breast
  TGI: 3.48 µM

## CC(C)(C)OC(=O)NCCCCCCCn1c2c(c3ccccc3c1=O)C(=O)c1ccccc1-2
BT-549 breast
  GI50: 22.4 µM
  TGI: 46.6 µM
DU-145 prostate
  GI50: 31.8 µM
  TGI: > 100 µM
HS 578T breast
  GI50: 17.4 µM
  TGI: 49.5 µM
MCF7 breast
  GI50: 55.4 µM
  TGI: > 100 µM
PC-3 prostate
  GI50: 25.4 µM
  TGI: > 100 µM
T-47D breast
  GI50: 16.4 µM
  TGI: 78.1 µM

## O=C1CCCCN1CCCCC#Cc1cccc(C#Cc2cccnc2)c1
BT-549 breast
  GI50: 18.6 µM
  TGI: 74.7 µM
DU-145 prostate
  GI50: 43.2 µM
  TGI: > 100 µM
HS 578T breast
  GI50: 28.5 µM
  TGI: > 100 µM
MCF7 breast
  GI50: 30.4 µM
  TGI: > 100 µM
PC-3 prostate
  GI50: 11.6 µM
  TGI: > 100 µM
T-47D breast
  GI50: 5.66 µM
  TGI: 26 µM

## O=C(O)[C@H](c1ccccc1)[C@@H](C(=O)O)c1ccccc1
BT-549 breast
  TGI: > 100 µM
DU-145 prostate
  TGI: > 100 µM
HS 578T breast
  TGI: > 100 µM
MCF7 breast
  TGI: > 100 µM
PC-3 prostate
  TGI: > 100 µM
T-47D breast
  TGI: > 100 µM

## O=C(N/N=C/c1ccccc1O)c1ccccc1
BT-549 breast
  GI50: 3.6 µM
  TGI: > 100 µM
DU-145 prostate
  GI50: 3.27 µM
  TGI: > 100 µM
HS 578T breast
  GI50: 27.1 µM
  TGI: > 100 µM
MCF7 breast
  GI50: 2.86 µM
  TGI: > 100 µM
PC-3 prostate
  GI50: 6.53 µM
  TGI: > 100 µM
T-47D breast
  GI50: 0.457 µM
  TGI: > 100 µM

## COc1cc(NCCCCCCCNC(C)C)c2nccc(C)c2c1
BT-549 breast
  GI50: 17.7 µM
  TGI: 33.5 µM
DU-145 prostate
  GI50: 17 µM
  TGI: 31.4 µM
HS 578T breast
  GI50: 17.4 µM
  TGI: 39.7 µM
MCF7 breast
  GI50: 2.68 µM
  TGI: 10.8 µM
PC-3 prostate
  GI50: 10.5 µM
  TGI: 23.9 µM
T-47D breast
  GI50: 5.44 µM
  TGI: 19.8 µM

## O=c1cc(/C=C/c2ccccc2)[nH]c2cc3c(cc12)OCO3
BT-549 breast
  TGI: 22 µM
DU-145 prostate
  TGI: > 100 µM
HS 578T breast
  TGI: 8.75 µM
MCF7 breast
  TGI: 21.5 µM
T-47D breast
  TGI: 17.3 µM

## O=S(=O)(NCCCNc1nccc(-c2c(-c3ccc(F)cc3)nc3sccn23)n1)c1ccc2ccccc2c1
BT-549 breast
  GI50: 4.34 µM
  TGI: > 100 µM
DU-145 prostate
  GI50: 5.53 µM
  TGI: > 100 µM
HS 578T breast
  GI50: 9.13 µM
  TGI: > 100 µM
MCF7 breast
  GI50: 3.71 µM
  TGI: > 100 µM
PC-3 prostate
  GI50: 4.36 µM
  TGI: > 100 µM
T-47D breast
  GI50: 2.85 µM
  TGI: > 100 µM

## COC(=O)C1=Nc2c(C)nn(-c3ccccc3)c2N=C(c2ccccc2)C1
BT-549 breast
  TGI: > 10 µM
DU-145 prostate
  TGI: > 10 µM
HS 578T breast
  TGI: > 10 µM
MCF7 breast
  TGI: > 10 µM
PC-3 prostate
  TGI: > 10 µM
T-47D breast
  TGI: > 10 µM
